Values of other authors as cited in US20220160648A1, “Composition Comprising Hydrolyzed Collagen and Cannabidiol and Use Thereof” (Inspired Health Products, LLC, priority 2019, published 2022).

What was measured:
[1] = reported
[2] = ingested, dosages from at least 3 g to as much as 60 g per day

Compound | anticonvulsant properties [1] | effect on sleep [2]
C=C(C)[C@@H]1CCC(C)=C[C@H]1c1c(O)cc(CCCCC)cc1O [CBD isolate, 2-[(1R,6R)-3-methyl-6-prop-1-en-2-ylcyclohex-2-en-1-yl]-5-pentylbenzene-1,3-diol] | did not | –
NCC(=O)O [glycine] | – | beneficial effect on sleep
